Test results reported in patent US9815796B2 (Merck Sharp & Dohme Corp., priority 2013, dated 2017).

Target: human PDE2A1 (Homo sapiens (Human), UniProt O00408)
Assay: IMAP FP PDE selectivity panel, human PDE2A1
Type: biochemical
Details: Human PDE2, Lab B; read-out: Human PDE2 Ki (nM) - Lab B
In short: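 GST-tagged human PDE2A1 expressed in insect cells, run at room temperature for 60 min with 50 nM FAM-cAMP containing 1000 nM cGMP, pH 7.2 Tris/MgCl2 buffer. IMAP fluorescence polarization read after binding step.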

human PDE2A1, sequence (O00408 other isoform, or with tags, fused parts or gaps): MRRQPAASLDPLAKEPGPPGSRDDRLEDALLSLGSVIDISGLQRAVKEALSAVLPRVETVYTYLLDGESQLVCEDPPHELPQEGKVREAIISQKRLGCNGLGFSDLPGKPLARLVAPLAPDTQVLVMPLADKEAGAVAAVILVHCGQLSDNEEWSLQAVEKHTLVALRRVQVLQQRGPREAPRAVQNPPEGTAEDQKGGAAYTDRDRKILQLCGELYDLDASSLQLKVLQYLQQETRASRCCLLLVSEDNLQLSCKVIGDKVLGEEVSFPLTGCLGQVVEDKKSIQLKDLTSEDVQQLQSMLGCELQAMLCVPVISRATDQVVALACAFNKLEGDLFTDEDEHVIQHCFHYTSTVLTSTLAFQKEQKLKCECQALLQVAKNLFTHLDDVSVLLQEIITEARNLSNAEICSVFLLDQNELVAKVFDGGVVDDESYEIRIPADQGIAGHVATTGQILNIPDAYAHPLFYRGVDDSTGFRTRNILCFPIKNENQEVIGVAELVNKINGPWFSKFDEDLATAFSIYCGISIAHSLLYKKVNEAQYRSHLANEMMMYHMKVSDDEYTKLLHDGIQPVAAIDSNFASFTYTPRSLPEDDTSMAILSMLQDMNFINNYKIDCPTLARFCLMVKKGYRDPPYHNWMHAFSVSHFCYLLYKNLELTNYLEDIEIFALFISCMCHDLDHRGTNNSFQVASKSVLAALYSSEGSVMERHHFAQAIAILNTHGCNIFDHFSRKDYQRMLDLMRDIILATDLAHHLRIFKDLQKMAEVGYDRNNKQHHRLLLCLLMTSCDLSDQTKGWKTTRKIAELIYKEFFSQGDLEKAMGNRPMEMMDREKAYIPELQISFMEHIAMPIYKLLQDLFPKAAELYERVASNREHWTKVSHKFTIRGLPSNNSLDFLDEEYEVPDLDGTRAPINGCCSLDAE

Going from CCC(C)(NC(=O)c1cc(=O)[nH]c(C)n1)c1ccc(C(F)(F)F)cc1F (single isomer, unassigned) [Example 719, (R)- or (S)-N-(2-(2-fluoro-4-(trifluoromethyl)phenyl)butan-2-yl)-2-methyl-6-oxo-1,6-dihydropyrimidine-4-carboxamide] to Cc1nc(C(=O)NC(C)(C)c2ccc(C(F)(F)F)cc2C)cc(=O)[nH]1 [Example 595, 2-methyl-N-{1-methyl-1-[2-methyl-4-(trifluoromethyl)phenyl]ethyl}-6-oxo-1,6-dihydropyrimidine-4-carboxamide], the Ki rises from 7.7 nM to 37 nM (4.8-fold).

Going from Cc1nc(C(=O)N[C@@](C)(CO)c2ccc(C(F)(F)F)cc2)cc(=O)[nH]1 [Example 635, N-{(1R)-2-hydroxy-1-methyl-1-[4-(trifluoromethyl)phenyl)ethyl}-2-methyl-6-oxo-1,6-dihydropyrimidine-4-carboxamide] to CCc1nc(C(=O)N[C@](C)(CO)c2ccc(C(F)(F)F)cc2)cc(=O)[nH]1 [Example 638, 2-ethyl-N-{(1S)-2-hydroxy-1-methyl-1-[4-(trifluoromethyl)phenyl]ethyl}-6-oxo-1,6-dihydropyrimidine-4-carboxamide], the Ki falls from 59 nM to 12 nM (4.9-fold). The second binds more tightly here.

Going from CC(C)(C)[C@@H](NC(=O)c1cc(=O)[nH]c(-c2ccccc2)n1)c1ccc(OC(F)(F)F)c(F)c1 [Example 542, N-{(1R)-1-[3-fluoro-4-(trifluoromethoxy)phenyl]-2,2-dimethylpropyl}-6-oxo-2-phenyl-1,6-dihydropyrimidine-4-carboxamide] to Cc1nc(C(=O)N[C@@H](c2ccc(OC(F)F)c(F)c2)C(C)(C)C)cc(=O)[nH]1 [Example 630, N-{(1R)-1-[4-(difluoromethoxy)-3-fluorophenyl]-2,2-dimethylpropyl}-2-methyl-6-oxo-1,6-dihydropyrimidine-4-carboxamide], the Ki rises from 1.4 nM to 5.1 nM (3.6-fold).

Compared with Cc1nc(C(=O)N[C@H](C)c2ccc(S(F)(F)(F)(F)F)cc2F)cc(=O)[nH]1 [Example 672, N-(1-(2-fluoro-4-(pentafluorothio)phenyl)ethyl)-2-methyl-6-oxo-1,6-dihydropyrimidine-4-carboxamide], Cc1nc(C(=O)NC(c2ccc(S(F)(F)(F)(F)F)cc2F)C(C)(C)C)cc(=O)[nH]1 (single isomer, unassigned) [Example 721, (S)- or (R)-N-(1-(2-fluoro-4-(pentafluoro-λ^6-sulfanyl)phenyl)-2,2-dimethylpropyl)-2-methyl-6-oxo-1,6-dihydropyrimidine-4-carboxamide] is lower in Ki: greater than 2960 nM for the first, roughly 1220 nM for the second. The second binds more tightly here.

CC1([C@@H](NC(=O)c2cc(=O)[nH]c(-c3ncccn3)n2)c2ccc(C(F)(F)F)c(F)c2)CC1 [Example 583, N-[(R)-[3-fluoro-4-(trifluoromethyl)phenyl](1-methylcyclopropyl)methyl]-6-oxo-1,6-dihydro-2,2′-bipyrimidine-4-carboxamide] and CC1([C@@H](NC(=O)c2cc(=O)[nH]c(-c3ncccn3)n2)c2ccc(C(F)(F)F)cc2)CC1 [Example 582, N-{(R)-(1-methylcyclopropyl)[4-(trifluoromethyl)phenyl]methyl}-6-oxo-1,6-dihydro-2,2′-bipyrimidine-4-carboxamide] are within 1.5-fold of each other in Ki: 8 nM for the first, 10 nM for the second.

Compared with C[C@@H](NC(=O)c1cc(=O)[nH]c(-c2ncco2)n1)c1ccc(C(F)(F)F)cc1 [Example 675, (R)-2-(oxazol-2-yl)-6-oxo-N-(1-(4-(trifluoromethyl)phenyl)ethyl)-1,6-dihydropyrimidine-4-carboxamide], CC(NC(=O)c1cc(=O)[nH]c(-c2ncccn2)n1)c1ccc(C2(C(F)(F)F)CC2)cc1 (single isomer, unassigned) [Example 693, (R)- or (S)-6-oxo-2-(pyrimidin-2-yl)-N-(1-(4-(1-(trifluoromethyl)cyclopropyl)phenyl)-ethyl)-1,6-dihydropyrimidine-4-carboxamide] is 3.7-fold lower in Ki: 234 nM for the first, 63 nM for the second.

Going from Cc1nc(C(=O)N[C@]2(c3ccc(C(F)(F)F)cc3)C[C@@H]2C)cc(=O)[nH]1 (single isomer, unassigned) [Example 671, 2-methyl-N-{2-methyl-1-[4-(trifluoromethyl)phenyl)cyclopropyl}-6-oxo-1,6-dihydropyrimidine-4-carboxamide] to Cc1nc(C(=O)N[C@]2(c3ccc(C(C)C)cc3)C[C@H]2C)cc(=O)[nH]1 (single isomer, unassigned) [Example 665, 2-methyl-N-{2-methyl-1-[4-(1-methylethyl)phenyl]cyclopropyl}-6-oxo-1,6-dihydropyrimidine-4-carboxamide], the Ki falls from 14 nM to 4.95 nM (2.8-fold). The second binds more tightly here.

CC(C)(NC(=O)c1cc(=O)[nH]c(-c2ncccn2)n1)c1ccc(C(F)(F)F)cc1Cl [Example 568, N-{1-[2-chloro-4-(trifluoromethyl)phenyl]-1-methylethyl}-6-oxo-1,6-dihydro-2,2′-bipyrimidine-4-carboxamide] and Cc1cc(C(F)(F)F)ccc1C(C)(C)NC(=O)c1cc(=O)[nH]c(-c2ncccn2)n1 [Example 569, N-{1-methyl-1-[2-methyl-4-(trifluoromethyl)phenyl]ethyl}-6-oxo-1,6-dihydro-2,2′-bipyrimidine-4-carboxamide] are within 1.5-fold of each other in Ki: 96 nM for the first, 139 nM for the second.

Going from O=C(N[C@@H](c1ccc(C2CC2)cc1)C1CC1)c1cc(=O)[nH]c(-c2ccccc2)n1 [Example 544, N-[(R)-cyclopropyl(4-cyclopropylphenyl)methyl]-6-oxo-2-phenyl-1,6-dihydropyrimidine-4-carboxamide] to CC(C)[C@@H](NC(=O)c1cc(=O)[nH]c(-c2ccccc2)n1)c1ccc(C2(C)CC2)cc1 [Example 533, N-{(1R)-2-methyl-1-[4-(1-methylcyclopropyl)phenyl]propyl}-6-oxo-2-phenyl-1,6-dihydropyrimidine-4-carboxamide], the Ki rises from 2.4 nM to 8 nM (3.3-fold).

Compared with Cc1nc(C(=O)NC(c2ccc(S(F)(F)(F)(F)F)cc2F)C(C)(C)C)cc(=O)[nH]1 (single isomer, unassigned) [Example 720, (R)- or (S)-N-(1-(2-fluoro-4-(pentafluoro-λ^6-sulfanyl)phenyl)-2,2-dimethylpropyl)-2-methyl-6-oxo-1,6-dihydropyrimidine-4-carboxamide], Cc1nc(C(=O)N[C@@H](c2ccc(C(F)F)cc2F)C(C)(C)C)cc(=O)[nH]1 [Example 661, N-{(1R)-1-[4-(difluoromethyl)-2-fluorophenyl]-2,2-dimethylpropyl}-2-methyl-6-oxo-1,6-dihydropyrimidine-4-carboxamide] is 2.5-fold higher in Ki: 2.6 nM for the first, 6.6 nM for the second.

Going from CC1(c2ccc(C(NC(=O)c3cc(=O)[nH]c(C4CC4)n3)C(C)(C)C)cc2F)CC1 (single isomer, unassigned) [Example 712, (S)- or (R)-2-cyclopropyl-N-(1-(3-fluoro-4-(1-methylcyclopropyl)phenyl)-2,2-dimethylpropyl)-6-oxo-1,6-dihydropyrimidine-4-carboxamide] to CC(NC(=O)c1cc(=O)[nH]c(C2CC2)n1)c1ccc(C2(C(F)(F)F)CC2)cc1 (single isomer, unassigned) [Example 689, (R)- or (S)-2-cyclopropyl-6-oxo-N-(1-(4-(1-(trifluoromethyl)cyclopropyl)phenyl)-ethyl)-1,6-dihydropyrimidine-4-carboxamide], the Ki falls from 237 nM to 67 nM (3.5-fold).

Compared with Cc1nc(C(=O)NC2(c3ccc(C(F)F)c(F)c3)CC2)cc(=O)[nH]1 [Example 655, N-{l-[4-(difluoromethyl)-3-fluorophenyl]cyclopropyl}-2-methyl-6-oxo-1,6-dihydropyrimidine-4-carboxamide], Cc1nc(C(=O)N[C@H](C)c2ccc(C(F)F)c(F)c2)cc(=O)[nH]1 [Example 657, N-{(1R)-1-[4-(difluoromethyl)-3-fluorophenyl]ethyl}-2-methyl-6-oxo-1,6-dihydropyrimidine-4-carboxamide] is 2.1-fold higher in Ki: 64 nM for the first, 133 nM for the second.

Compared with O=C(NC1(c2ccc(C(F)(F)F)cc2F)CC1)c1cc(=O)[nH]c(-c2ncccn2)n1 [Example 579, N-{1-[2-fluoro-4-(trifluoromethyl)phenyl]cyclopropyl}-6-oxo-1,6-dihydro-2,2′-bipyrimidine-4-carboxamide], Cc1nc(C(=O)NC2(c3ccc(C(F)(F)F)cc3Cl)CC2)cc(=O)[nH]1 [Example 637, N-{1-[2-chloro-4-(trifluoromethyl)phenyl]cyclopropyl}-2-methyl-6-oxo-1,6-dihydropyrimidine-4-carboxamide] is 2.3-fold lower in Ki: 37 nM for the first, 16 nM for the second. The second binds more tightly here.

Compared with CCc1nc(C(=O)NC(C)(C)c2ccc(C(F)(F)F)cc2Cl)cc(=O)[nH]1 [Example 608, N-{1-[2-chloro-4-(trifluoromethyl)phenyl]-1-methylethyl}-2-ethyl-6-oxo-1,6-dihydropyrimidine-4-carboxamide], Cc1nc(C(=O)NC(C)(C)c2ccc(C(F)F)c(F)c2)cc(=O)[nH]1 [Example 654, N-{1-[4-(difluoromethyl)-3-fluorophenyl]-1-methylethyl}-2-methyl-6-oxo-1,6-dihydropyrimidine-4-carboxamide] is 22-fold higher in Ki: 3.2 nM for the first, 72 nM for the second.

Going from CC(NC(=O)c1cc(=O)[nH]c(-c2ccccc2)n1)c1ccc(C2(C(F)(F)F)CC2)cc1 (single isomer, unassigned) [Example 690, (S)- or (R)-6-oxo-2-phenyl-N-(1-(4-(1-(trifluoromethyl)cyclopropyl)phenyl)-ethyl)-1,6-dihydropyrimidine-4-carboxamide] to CC1([C@@H](NC(=O)c2cc(=O)[nH]c(-c3ncccn3)n2)c2ccc(OC(F)F)cc2)CC1 [Example 584, N-[(R)-[4-(difluoromethoxy)phenyl](1-methylcyclopropyl)methyl]-6-oxo-1,6-dihydro-2,2′-bipyrimidine-4-carboxamide], the Ki falls from greater than 2960 nM to 36 nM. The second binds more tightly here.

First: O=C(N[C@@H](c1ccc2c(c1)OC(F)(F)O2)C1CC1)c1cc(=O)[nH]c(-c2ncccn2)n1 [Example 591, N-[(R)-cyclopropyl(2,2-difluoro-1,3-benzodioxol-5-yl)methyl]-6-oxo-1,6-dihydro-2,2′-bipyrimidine-4-carboxamide]
Second: CC(C)(C)[C@@H](NC(=O)c1cc(=O)[nH]c(-c2ncccn2)n1)c1ccc2c(c1)OC(F)(F)O2 [Example 586, N-[(1R)-1-(2,2-difluoro-1,3-benzodioxol-5-yl)-2,2-dimethylpropyl]-6-oxo-1,6-dihydro-2,2′-bipyrimidine-4-carboxamide]
The Ki of the first is 1.6-fold higher: 30 nM for the first, 19 nM for the second.
